According to ChEMBL document CHEMBL6121060, “Discovery and Development of CFTR Modulators for the Treatment of Cystic Fibrosis” (J Med Chem, 2025):
Values after ≈ are worked out from the molar mass of the structure shown. Values belong to the compound of their own block, whether it stands above or below them.

Tests used:
[1] = Apparent permeability across apical to basolateral side in MDCK cells; assay type: ADME, cell-based, Canis lupus familiaris; details: dog
[2] = biological target: T1, Cystic fibrosis transmembrane conductance regulator (Homo sapiens, UniProt P13569, F508DEL); experiment: Potentiation of CFTR F508del mutant (unknown origin) expressed in NIH3T3 cells; assay type: cell-based
[3] = biological target: T2, PXR (nuclear receptor subfamily 1 group I member 2) (Homo sapiens, UniProt O75469); experiment: Activation of PXR (unknown origin) at 10 uM relative to control; details: read-out: Activity
T2 sequence (O75469 whole entry): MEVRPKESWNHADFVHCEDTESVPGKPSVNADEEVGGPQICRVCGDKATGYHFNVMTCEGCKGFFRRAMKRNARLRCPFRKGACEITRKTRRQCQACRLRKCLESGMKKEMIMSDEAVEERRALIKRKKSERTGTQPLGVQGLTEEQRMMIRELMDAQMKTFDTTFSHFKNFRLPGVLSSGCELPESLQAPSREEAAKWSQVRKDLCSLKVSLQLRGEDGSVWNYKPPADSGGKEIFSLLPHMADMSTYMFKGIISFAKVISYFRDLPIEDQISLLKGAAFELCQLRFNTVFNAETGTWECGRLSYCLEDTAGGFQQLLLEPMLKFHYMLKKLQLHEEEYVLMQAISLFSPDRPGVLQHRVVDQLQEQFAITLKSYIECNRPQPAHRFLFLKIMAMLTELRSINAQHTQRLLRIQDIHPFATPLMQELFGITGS

[4] = biological target: T1, Cystic fibrosis transmembrane conductance regulator; experiment: Activation of CFTR F508del mutant (unknown origin)
[5] = Oral bioavailability in rat; assay type: ADME, organism-based; details: in vivo
[6] = Intrinsic clearance in mouse liver microsomes by HPLC-MS/MS analysis; assay type: ADME, Microsome; details: read-out: CLH (converted)
[7] = biological target: T3, Nuclear receptor subfamily 1 group I member 2 (Homo sapiens, UniProt O75469); experiment: Activation of PXR (unknown origin) at 10 uM relative to rifampicin
T3 sequence (O75469 whole entry): T2 sequence (O75469 whole entry)

[8] = Half life in rat at 3 mg/kg, iv measured for 24 hrs by LC-MS/MS analysis; assay type: ADME, organism-based; details: in vivo
[9] = Intrinsic clearance in rat liver microsomes by HPLC-MS/MS analysis; assay type: ADME, Microsome; details: read-out: CLH (converted)
[10] = Clearance in rat liver microsomes by LC-MS/MS analysis; assay type: ADME, Microsome
[11] = Volume of distribution at steady state in rat at 3 mg/kg, iv measured for 24 hrs by LC-MS/MS analysis; assay type: ADME, organism-based; details: in vivo, read-out: Vdss
[12] = Mean residence time in rat at 1 mg/kg, iv; assay type: ADME, organism-based; details: in vivo
[13] = Metabolic stability in rat liver microsomes assessed as intrinsic clearance; assay type: ADME, Microsome
[14] = Plasma protein binding in human; assay type: ADME, cell-free
[15] = biological target: T1, Cystic fibrosis transmembrane conductance regulator; experiment: Potentiation of CFTR F508del mutant (unknown origin)
[16] = Clearance in rat at 1 mg/kg, iv; assay type: ADME, organism-based; details: in vivo
[17] = Volume of distribution at steady state in rat at 1 mg/kg, iv; assay type: ADME, organism-based; details: in vivo, read-out: Vdss
[18] = Solubility of compound at pH 6.8 incubated for 12 hrs by HPLC analysis; assay type: physicochemical; details: buffer
[19] = AUC in rat at 3 mg/kg, po; details: in vivo
[20] = biological target: T1, Cystic fibrosis transmembrane conductance regulator; experiment: Potentiation of VX-809-induced corrector activity at CFTR F508del mutant in patient derived human HBE cells; assay type: cell-based

T1 sequence (P13569 as listed by the source): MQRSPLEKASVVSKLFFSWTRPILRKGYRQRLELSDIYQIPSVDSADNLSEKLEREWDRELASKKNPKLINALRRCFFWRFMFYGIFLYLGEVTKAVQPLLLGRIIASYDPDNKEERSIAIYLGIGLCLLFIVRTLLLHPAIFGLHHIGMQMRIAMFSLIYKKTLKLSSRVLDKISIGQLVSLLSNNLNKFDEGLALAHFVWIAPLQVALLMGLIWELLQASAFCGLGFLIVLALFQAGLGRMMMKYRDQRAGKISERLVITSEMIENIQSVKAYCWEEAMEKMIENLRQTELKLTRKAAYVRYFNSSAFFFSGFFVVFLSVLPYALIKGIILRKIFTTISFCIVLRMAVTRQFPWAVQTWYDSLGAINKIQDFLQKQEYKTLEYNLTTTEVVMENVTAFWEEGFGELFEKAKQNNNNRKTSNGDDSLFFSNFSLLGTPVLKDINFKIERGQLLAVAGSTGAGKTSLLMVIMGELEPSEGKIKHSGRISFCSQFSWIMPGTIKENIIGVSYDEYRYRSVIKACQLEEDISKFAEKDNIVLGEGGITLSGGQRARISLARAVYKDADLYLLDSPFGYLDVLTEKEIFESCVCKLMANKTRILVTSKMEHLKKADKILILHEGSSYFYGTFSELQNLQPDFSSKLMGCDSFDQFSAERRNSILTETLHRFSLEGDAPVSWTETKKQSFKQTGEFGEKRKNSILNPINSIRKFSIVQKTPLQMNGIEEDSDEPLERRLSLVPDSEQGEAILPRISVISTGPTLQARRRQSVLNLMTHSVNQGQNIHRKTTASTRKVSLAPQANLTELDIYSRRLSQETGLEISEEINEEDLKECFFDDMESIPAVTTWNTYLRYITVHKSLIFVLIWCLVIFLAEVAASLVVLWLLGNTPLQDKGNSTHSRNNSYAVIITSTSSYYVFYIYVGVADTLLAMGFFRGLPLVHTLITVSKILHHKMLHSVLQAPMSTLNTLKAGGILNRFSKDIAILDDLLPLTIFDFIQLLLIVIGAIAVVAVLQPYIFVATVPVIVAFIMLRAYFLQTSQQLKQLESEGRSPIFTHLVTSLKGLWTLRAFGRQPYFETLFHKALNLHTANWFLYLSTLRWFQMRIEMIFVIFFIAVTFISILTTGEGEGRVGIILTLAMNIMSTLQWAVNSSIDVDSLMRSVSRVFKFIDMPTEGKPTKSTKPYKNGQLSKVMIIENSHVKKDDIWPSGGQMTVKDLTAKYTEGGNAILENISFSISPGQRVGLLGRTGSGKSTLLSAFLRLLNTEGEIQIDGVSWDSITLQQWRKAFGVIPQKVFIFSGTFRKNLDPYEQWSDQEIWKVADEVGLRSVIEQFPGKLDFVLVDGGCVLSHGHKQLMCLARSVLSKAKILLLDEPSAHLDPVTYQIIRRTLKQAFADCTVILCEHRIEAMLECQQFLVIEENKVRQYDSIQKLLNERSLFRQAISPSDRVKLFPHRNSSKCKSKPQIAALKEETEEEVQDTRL

Papp A→B [1]: 8.8 ×10⁻⁶ cm/s
EC50 [2]: 0.09 µM
activity at 10 µM [3]: 1%
SMILES: Cc1nn(C)c(C)c1S(=O)(=O)NC(=O)c1ccc(-n2ccc(OCC(C)(C)C(F)(F)F)n2)nc1N1C[C@@H](C)CC1(C)C

EC50 [4]: 0.004 µM
SMILES: CC(C)(CN1CCCCCc2ccccc2-c2nc(ccc2C(F)(F)F)NS(=O)(=O)c2cccc1n2)C(=O)O

Papp A→B [1]: 11.7 ×10⁻⁶ cm/s
EC50 [2]: 0.13 µM
activity at 10 µM [3]: 4%
bioavailability [5]: 65%
SMILES: Cc1nn(C)cc1S(=O)(=O)NC(=O)c1ccc(-n2ccc(OCCC3(C(F)(F)F)CC3)n2)nc1N1C[C@@H](C)CC1(C)C

EC50 [4]: < 3 µM
SMILES: COc1ccc(C2CCC2)cc1C1(C(=O)NS(=O)(=O)c2cccc3ccccc23)CC1

EC50 [4]: 0.08 µM
SMILES: Cc1ccc(C2CCCCC2)c(OC2(C(=O)NS(=O)(=O)c3cccc(N4CCOC[C@@H]4C)n3)CC2)c1

EC50 [4]: 0.01 µM
SMILES: CC(C)(CO)CN1CCCCCCc2ccccc2-c2nc(ccc2C(F)(F)F)NS(=O)(=O)c2cccc1n2

EC50 [4]: 1.26 µM
SMILES: Cc1nn(-c2ccc(F)cc2)c2nc(C(=O)NS(C)(=O)=O)cc(-c3ccc(N4CCOCC4)cc3)c12

EC50 [4]: 0.24 µM
SMILES: C[C@@H]1CN(c2nc(-n3ccc(OCC(O)C4(C(F)(F)F)CC4)n3)ccc2C(=O)NS(=O)(=O)c2ccccc2)C(C)(C)C1 (some centres not stated)

EC50 [4]: 0.004 µM
SMILES: CCc1ccccc1-c1nc(NS(=O)(=O)c2cccc(N(CC)CCCC(=O)O)n2)ccc1C(F)(F)F

EC50 [4]: 0.002 µM
SMILES: Cc1ccc(C2CCCCCC2)c(OC2(C(=O)NS(=O)(=O)c3cccc(N)n3)CC2)c1

EC50 [4]: 0.1 µM
SMILES: Cc1ccccc1-c1nc(NS(=O)(=O)c2cccc(N3CCC[C@H](CC(=O)O)C3)n2)ccc1C(F)(F)F

EC50 [4]: 0.002 µM
SMILES: Cc1ccc(F)cc1-c1nc(NS(=O)(=O)c2cccc(N3CCC[C@@](C)(CC(=O)O)C3)n2)ccc1C(F)(F)F

EC50 [4]: 0.08 µM
SMILES: CC(C)(CN1CCCCCCc2ccccc2-c2nc(ccc2C(F)(F)F)NS(=O)(=O)c2cccc1n2)C(=O)O

EC50 [4]: < 3 µM
SMILES: COc1ccc(Br)c2c1CCCC2C(=O)NS(=O)(=O)c1cccc2ncccc12 (configuration not stated)

Continued, compound first:

SMILES: Nc1cc(S(=O)(=O)c2ccc(OC(F)(F)F)cc2)cnc1-c1nnc(C(O)C(F)(F)F)o1 (configuration not stated)
EC50 [4]: 0.0058 µM

SMILES: Nc1cc(S(=O)(=O)c2ccccc2OC(F)(F)F)cnc1C(=O)NC[C@@H](O)C(F)(F)F
EC50 [4]: < 0.00031 µM
CLint scaled [6]: 120 mL/min/kg
Activity [7]: 12%
half-life [8]: 6.7 h
CLint scaled [9]: 45 mL/min/kg
CLH [10]: 9.83 mL/min/kg
Vd [11]: 5.1 L/kg

SMILES: C[C@](O)(CNC(=O)c1nc(C(F)(F)F)c(C(F)(F)F)cc1N)C(F)(F)F
MRT [12]: 7.2 h
CLint [13]: 7.38 µL/min/mg
PPB [14]: 92.3%
EC50 [15]: 0.01 µM
clearance [16]: 15 mL/min/kg
Vd [17]: 6.4 L/kg
solubility at 12 h [18]: 230 µg/mL (≈ 576 µM)

SMILES: CC1(C)Cc2c(sc(NC(=O)C3(CO)CC3)c2C(N)=O)C(C)(C)O1
EC50 [4]: 0.0027 µM

SMILES: C[C@@H]1CN(c2nc(-n3ccc(OCC4(C(F)(F)F)CCC4)n3)ccc2C(=O)NS(=O)(=O)c2ccccc2)C(C)(C)C1
AUC [19]: 2200 ng·h/mL
EC50 [4]: 0.04 µM

SMILES: COc1ccc(C)cc1[C@]1(C(=O)NS(=O)(=O)c2cccc3nc(C)ccc23)C[C@@H]1c1cnc(C(C)C)cn1
EC50 [4]: 0.03 µM

SMILES: COc1ccc(C2CCC2)c2c1C(C(=O)NS(=O)(=O)c1cccc3ccccc13)C2 (configuration not stated)
EC50 [4]: < 3 µM

SMILES: CC1(C)Cc2c(sc(NC(=O)[C@H](O)C(C)(C)C)c2C(N)=O)C(C)(C)O1
EC50 [4]: 0.003 µM

SMILES: CC1(C)Cc2c(sc(NC(=O)[C@@H](O)C(C)(C)C)c2C(N)=O)C(C)(C)O1
EC50 [4]: 0.127 µM

SMILES: Nc1cc(S(=O)(=O)c2ccc(OC(F)(F)F)cc2)cnc1-c1nnc([C@@H](O)c2ccccc2)o1
EC50 [4]: 0.0011 µM

SMILES: COc1ccc(C)cc1[C@]1(C(=O)NS(=O)(=O)c2cccc3nc(C)ccc23)C[C@@H](c2ccccc2)CO1
EC50 [4]: 0.03 µM

SMILES: CC(O)(c1nnc(-c2ncc(S(=O)(=O)c3ccc(OC(F)(F)F)cc3)cc2N)o1)C(F)(F)F (configuration not stated)
EC50 [4]: 0.0018 µM

SMILES: COc1ncc(C2CCC2)cc1C1(C(=O)NS(=O)(=O)c2cccc3c2CCCN3)CC1
EC50 [4]: < 3 µM

SMILES: C[C@H](O)CNC(=O)c1ncc(S(=O)(=O)c2ccc(OC(F)(F)F)cc2)cc1N
CLint scaled [6]: 41.7 mL/min/kg
Activity [7]: 10%
EC50 [20]: 0.0807 µM
half-life [8]: 8.9 h
CLint scaled [9]: 20 mL/min/kg
CLH [10]: 1.3 mL/min/kg
Vd [11]: 1.1 L/kg
